{
  "source": "patent US5545639A",
  "about": "“Method of inhibiting transformed cells” (The United States of America as represented by the …, priority 1994, dated 1996)",
  "key": {"[1]": {"tested_on": "mouse L1210 leukemia cells", "assay": "Example 2: growth of mouse L1210 leukemia cells with monohalomethyl phenanthrolines, with/without copper and BCS", "assay_type": "cell-based", "description": "The aforementioned monohalomethyl compounds were prepared and characterized as described by Newkome et al., J. Org. Chem., 54, 1766-1769 (1989). The compounds were then added to different cultures of mouse L1210 leukemia cells alone (.smallcircle.), with copper sulfate (.quadrature.), with BCS (.circle-solid.), or with BCS and copper sulfate (.box-solid.). The concentrations of copper and BCS used in these experiments were 10 μM and 100 μM, respectively. Methods used to grow the cells and to administer the test compounds were standard methods, well known to ordinary practitioners, and were similar to those used in Example 1. The growth of the cells as a percent of controls were determined, and the results were plotted in the graph of FIG. 2."}, "[2]": {"tested_on": "P388 murine lymphocytic leukemia cells", "conditions": "mice inoculated with P388 cells; 2,9-DMP treatment with copper; cited from earlier work"}, "L1210 cells": {"tested_on": "L1210 cells", "conditions": "2,9-DMP with copper; cited from earlier work"}, "mouse L1210 cells": {"tested_on": "mouse L1210 cells", "conditions": "coordinated copper complex, tissue culture; cited from earlier work"}, "[3]": {"tested_on": "mouse L1210 leukemia cells", "assay": "Example 1: growth of mouse L1210 leukemia cells with 2,9-DMP, with/without copper and BCS", "assay_type": "cell-based", "conditions": "for activity at 0.4 µM: at concentrations above about 0.4 μM", "description": "The phenanthroline derivative 2,9-DMP was added to a culture of mouse L1210 leukemia cells alone (.smallcircle.), with copper sulfate (.circle-solid.), and with copper sulfate and bathocuproine sulfonate (.quadrature.). The concentrations of copper sulfate and bathocuproine sulfonate used in these experiments were both 25 μM. Methods used to grow the cells and to administer the test compounds were standard methods, well known to ordinary practitioners. The growth of the cells as a percent of control was determined, and the results were plotted in the graph of FIG. 1."}, "L1210 mouse cells": {"tested_on": "L1210 mouse cells", "assay": "Example 3: growth of L1210 mouse cells with bis(halomethyl)phenanthrolines plus copper, with or without BCS", "assay_type": "cell-based", "conditions": "copper 10 μM, BCS 100 μM", "description": "Bis(halomethyl)phenanthroline compounds were synthesized according to the method of Newkome et al., J. Org. Chem., 48, 5112-5114 (1983). Such compounds, namely, 2,9-bis(bromomethyl)phenanthroline and 2,9-bis(chloromethyl)phenanthroline, were added in the presence of copper, but with or without BCS (the copper chelator shown in Examples 1 and 2 to reduce inhibitory activity), to the culture media of L1210 mouse cells, using the same methods of Examples 1 and 2. The concentrations of copper and BCS used in these experiments were 10 μM and 100 μM, respectively. The growth of the cells as a percent of control were determined, and the results plotted in the graph of FIG. 3, wherein open squares (.quadrature.) represent the compound plus copper chelate and solid squares (.box-solid.) represent the compound together with both copper and BCS addition to the culture medium."}},
  "note": "Read-outs that look alike come from different tables or passages of the source.",
  "data": [
    {"compound": "Cc1ccc2ccc3ccc(CCl)nc3c2n1", "note": "[2-CM-9-MP, 2-chloromethyl-9-methyl-1,10-phenanthroline]", "values": [
      {"measurement": "inhibitory activity compared with unhalogenated parent compound of Example 1", "setting": "[1]", "value": "less than that of the unhalogenated parent compound"}
    ]},
    {"compound": "Cc1ccc2ccc3ccc(C)nc3c2n1", "note": "[2,9-DMP, 2,9-dimethyl-1,10-phenanthroline]", "values": [
      {"measurement": "increase in life span", "setting": "[2]", "value": 45, "unit": "%"},
      {"measurement": "inhibitory response of L1210 tumor in implanted animals", "setting": "L1210 cells", "value": "evident, although weak"},
      {"measurement": "concentration effective for killing of L1210 cells", "setting": "mouse L1210 cells", "value": "nanomolar concentrations"},
      {"measurement": "activity at 0.4 µM", "setting": "[3]; Mus musculus, L1210, 2,9-DMP alone, read-out: cell growth as percent of control", "value": "< 20", "unit": "%"},
      {"measurement": "activity at 0.1 µM", "setting": "[3]; Mus musculus, L1210, with copper ion (copper sulfate 25 μM), at concentrations above about 0.1 μM, read-out: cell growth as percent of control", "value": "< 20", "unit": "%"},
      {"measurement": "activity at 0.4 µM", "setting": "[3]; Mus musculus, L1210, with copper ion (copper sulfate 25 μM), read-out: cell growth as percent of control", "value": "< 10", "unit": "%"},
      {"measurement": "concentration inhibiting to the same level (20% of control) relative to copper-chelated monobrominated phenanthroline", "setting": "[3]; copper chelated", "value": "less than one-tenth of that concentration"}
    ]},
    {"compound": "Cc1ccc2ccc3ccc(CBr)nc3c2n1", "note": "[2-BM-9-MP, 2-bromomethyl-9-methyl-1,10-phenanthroline]", "values": [
      {"measurement": "inhibitory activity compared with unhalogenated parent compound of Example 1", "setting": "[1]", "value": "less than that of the unhalogenated parent compound"}
    ]},
    {"compound": "BrCc1ccc2ccc3ccc(CBr)nc3c2n1", "note": "[2,9-bis(bromomethyl)-1,10-phenanthroline]", "values": [
      {"measurement": "difference in inhibitory effect, presence vs absence of available copper (BCS)", "setting": "L1210 mouse cells", "value": "about 10%"}
    ]}
  ]
}
